The text below walks through data of patent publication US20250144067A1, “PERSONALIZED STARVATION THERAPY FOR CANCER” (Faeth Therapeutics, Inc., priority 2021, published 2025).

Where a name gives a salt, the structure may show the parent alone.

In assay [1] the test system is NCI-H292 lung cancer cells. Nature of the assay: FDA drug screening, complete media vs cholesterol-free media with simvastatin (TABLE 2). The following applies: for Cholesterol-free media + simvastatin (0.04 μM) / Complete Media: NCI-H292 cells; for Difference: >0 enhanced anti-cancer activity, about 0 neutral, <0 antagonist. The assay is classed as cell-based, human.

Assay [2] has as its system NCI-H292 lung cancer cells. The assay can be described thus: FDA drug screening, complete media vs cholesterol-free media without statin (TABLE 1). The assay is classed as cell-based, human. The note with it: for Difference: about 0 neutral.
The mark [3] stands for this setting: complete media minus cholesterol-free media + simvastatin.
Setting [4] is: Complete minus Cholesterol-free, >0 enhanced anti-cancer activity, <0 antagonist.
Setting [5] is: NCI-H292 cells, cholesterol-free media without statin.
Setting [6] is: FDA drug library screen, cholesterol-free media with simvastatin 0.04 μM.
The mark [7] stands for this setting: FDA drug library screen, complete media.
Where [8] appears, read: NCI-H292 cells, cholesterol-free media without statin, FDA drug library screen.
Where [9] appears, read: NCI-H292 cells, complete media, FDA drug library screen.
The mark [10] stands for this setting: complete media vs cholesterol-free media + simvastatin (0.04 μM).
[11] abbreviates: complete vs cholesterol-free media, greater than 0 enhanced anti-cancer activity, below 0 antagonists.
Where [12] appears, read: Complete minus Cholesterol-free, greater than 0 enhanced anti-cancer activity, below 0 antagonist.
Where [13] appears, read: NCI-H292 cells, FDA drug library screen, cholesterol-free media without statin.
[14] abbreviates: NCI-H292 cells, FDA drug library screen, complete media.
The mark [15] stands for this setting: drug in cholesterol-free media with simvastatin 0.04 μM.

For the compound `Nc1nc2[nH]cc(CCc3ccc(C(=O)N[C@@H](CCC(=O)O)C(=O)O)cc3)c2c(=O)[nH]1` [Pemetrexed (disodium)], in assay [1] (cholesterol-free media with simvastatin 0.04 μM, cell growth value in FDA drug screen), the “Cholesterol-free media + simvastatin (0.04 μM)” value was found to be 0.1199. Moreover, the “Complete Media” value in assay [1] (complete media, cell growth value in FDA drug screen) is reported as 0.1499. Besides, the figures for the Difference in assay [1] (setting [3]) and in assay [2] (setting [4]) were 0.03 and −0.19, respectively. The Cholesterol-free in assay [2] (setting [5]) is recorded as 0.3169. In assay [2] (NCI-H292 cells, complete media), this compound gave a Complete of 0.1251.

Turning to `Cc1cn([C@H]2O[C@@H](CO)[C@H](O)[C@H]2F)c(=O)[nH]c1=O` [Clevudine], the “Cholesterol-free media + simvastatin (0.04 μM)” value in assay [1] (setting [6]) is listed as 0.7152. Further, the “Complete Media” value in assay [1] (setting [7]) is listed as 0.881. Besides, the Difference in assay [1] (setting [3]) is recorded as 0.17; in assay [2] (setting [4]), −0.06. The compound also yielded a Cholesterol-free in assay [2] (setting [8]) of 0.975. This compound also gave a Complete in assay [2] (setting [9]) of 0.9127.

On to `O=C(O)C1=C(CSc2nnnn2CS(=O)(=O)O)CS[C@@H]2[C@H](NC(=O)[C@H](O)c3ccccc3)C(=O)N12` [Cefonicid (sodium)], for which, in assay [1] (setting [6]), the “Cholesterol-free media + simvastatin (0.04 μM)” value is given as 1.25. Moreover, in assay [1] (setting [7]), the “Complete Media” value came out at 1.107. The values for the Difference in assay [1] (setting [10]) and in assay [2] (setting [4]) were −0.14 and 0.00, respectively. The compound further came in with a Cholesterol-free in assay [2] (setting [8]) of 0.833. The Complete in assay [2] (setting [9]) was 0.8286.

Consider `CCOc1nc2cccc(C(=O)O)c2n1Cc1ccc(-c2ccccc2-c2nc(=O)o[nH]2)cc1` [Azilsartan], for which the “Cholesterol-free media + simvastatin (0.04 μM)” value in assay [1] (setting [6]) is listed as 1.196. For the same compound, in assay [1] (setting [7]), the “Complete Media” value is 1.042. Moreover, the Difference is reported as −0.15 in assay [1] (setting [10]) and −0.40 in assay [2] (setting [11]). In assay [2] (setting [5]), the Cholesterol-free was determined as 1.417. The Complete in assay [2] (NCI-H292 cells, complete media) was 1.021.

Regarding `CC(=O)Nc1ccc(OC(=O)c2ccccc2OC(C)=O)cc1` [Benorilate], the “Cholesterol-free media + simvastatin (0.04 μM)” value in assay [1] (setting [6]) was 1.253. Moreover, the “Complete Media” value in assay [1] (setting [7]) is reported as 1.11. Moreover, the Difference in assay [1] (setting [10]) is reported as −0.14; in assay [2] (setting [11]), −0.33. In assay [2] (setting [5]), this compound displayed a Cholesterol-free of 1.212. Also, the Complete in assay [2] (NCI-H292 cells, complete media) is 0.8832.

`CN(C)CCC=C1c2ccccc2COc2ccccc21` [Doxepin (Hydrochloride)]: in assay [1] (setting [6]), the “Cholesterol-free media + simvastatin (0.04 μM)” value is 0.8618. In assay [1] (setting [7]), the “Complete Media” value came out at 1.158. Also, the Difference in assay [1] (setting [3]) is given as 0.30; in assay [2] (setting [12]), −0.11. The Cholesterol-free in assay [2] (setting [13]) is given as 1.23. Moreover, the Complete in assay [2] (setting [14]) was determined as 1.122.

Turning to `N[C@@H](Cc1ccccc1)C(=O)O` [L-Phenylalanine], in assay [1] (setting [15]), the “Cholesterol-free media + simvastatin (0.04 μM)” value is reported as 0.988. The “Complete Media” value in assay [1] (drug in complete media) amounted to 0.7918. Further, the Difference in assay [1] (setting [10]) is on record as −0.20; in assay [2] (setting [4]), −0.24. The compound further returned a Cholesterol-free in assay [2] (setting [5]) of 1.103. Further, in assay [2] (NCI-H292 cells, complete media), the Complete is 0.8607.

As to `O=C(O)CCCCCCCC(=O)O` [Azelaic acid], in assay [1] (FDA library drug in cholesterol-free media with simvastatin 0.04 μM), the “Cholesterol-free media + simvastatin (0.04 μM)” value came out at 1.245. Further, in assay [1] (FDA library drug in complete media), the “Complete Media” value stood at 0.8813. Moreover, the Difference in assay [1] (setting [10]) is listed as −0.36; in assay [2] (Complete minus Cholesterol-free, greater than 0 enhanced anti-cancer activity, below 0 antagonists), −0.60. Besides, the Cholesterol-free in assay [2] (NCI-H292 cells in cholesterol-free media without statin) was 1.702. Moreover, the Complete in assay [2] (NCI-H292 cells in complete media) is reported as 1.104.

Take `CCCN(CCc1cccs1)[C@H]1CCc2c(O)cccc2C1` [Rotigotine (Hydrochloride)]: in assay [1] (setting [6]), the “Cholesterol-free media + simvastatin (0.04 μM)” value was 0.8026. Moreover, the “Complete Media” value in assay [1] (setting [7]) worked out at 0.6752. The Difference is reported as −0.13 in assay [1] (setting [10]) and −0.08 in assay [2] (setting [12]). The compound further returned a Cholesterol-free in assay [2] (setting [13]) of 0.8788. The same compound showed a Complete in assay [2] (setting [14]) of 0.7943.

As for `N[C@@H](Cc1c[nH]c2ccc(O)cc12)C(=O)O` [5-Hydroxytryptophan], the “Cholesterol-free media + simvastatin (0.04 μM)” value in assay [1] (setting [15]) stood at 1.063. The “Complete Media” value in assay [1] (drug in complete media) was determined as 0.8252. Moreover, the Difference in assay [1] (setting [10]) is listed as −0.24; in assay [2] (setting [11]), −0.33. Moreover, the Cholesterol-free in assay [2] (setting [5]) is recorded as 1.189. The same compound came in with a Complete in assay [2] (NCI-H292 cells, complete media) of 0.856.
